Measured values published in paper PMC3203539 (2011).
Where two headings read alike, the source gives them in different places.

Key:
[1] = molecular target: T1, Sth1 (ATPase subunit of RSCt, trimeric minimal RSC) (Saccharomyces cerevisiae, UniProt P32597); format: binding
T1 sequence (P32597 301-1097): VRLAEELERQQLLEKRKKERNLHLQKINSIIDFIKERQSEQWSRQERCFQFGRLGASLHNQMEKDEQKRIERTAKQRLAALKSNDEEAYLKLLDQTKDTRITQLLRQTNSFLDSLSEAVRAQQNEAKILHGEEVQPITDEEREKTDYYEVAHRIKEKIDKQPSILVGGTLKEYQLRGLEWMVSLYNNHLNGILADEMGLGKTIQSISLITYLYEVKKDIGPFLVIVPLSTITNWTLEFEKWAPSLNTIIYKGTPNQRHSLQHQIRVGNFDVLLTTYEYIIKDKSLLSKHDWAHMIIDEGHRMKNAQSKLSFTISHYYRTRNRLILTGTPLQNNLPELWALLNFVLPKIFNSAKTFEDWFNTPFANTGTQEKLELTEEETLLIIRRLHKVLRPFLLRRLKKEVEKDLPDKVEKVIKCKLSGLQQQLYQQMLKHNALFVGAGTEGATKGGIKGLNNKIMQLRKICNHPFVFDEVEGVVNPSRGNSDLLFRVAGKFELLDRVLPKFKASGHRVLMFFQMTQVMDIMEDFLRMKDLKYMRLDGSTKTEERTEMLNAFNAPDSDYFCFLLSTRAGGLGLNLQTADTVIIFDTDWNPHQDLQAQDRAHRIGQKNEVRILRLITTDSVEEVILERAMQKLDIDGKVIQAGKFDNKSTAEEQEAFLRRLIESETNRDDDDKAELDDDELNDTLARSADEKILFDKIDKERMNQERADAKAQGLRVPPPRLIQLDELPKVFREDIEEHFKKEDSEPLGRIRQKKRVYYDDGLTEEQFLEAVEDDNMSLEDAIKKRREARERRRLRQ
T1 sequence (Q12406 1-477 partner): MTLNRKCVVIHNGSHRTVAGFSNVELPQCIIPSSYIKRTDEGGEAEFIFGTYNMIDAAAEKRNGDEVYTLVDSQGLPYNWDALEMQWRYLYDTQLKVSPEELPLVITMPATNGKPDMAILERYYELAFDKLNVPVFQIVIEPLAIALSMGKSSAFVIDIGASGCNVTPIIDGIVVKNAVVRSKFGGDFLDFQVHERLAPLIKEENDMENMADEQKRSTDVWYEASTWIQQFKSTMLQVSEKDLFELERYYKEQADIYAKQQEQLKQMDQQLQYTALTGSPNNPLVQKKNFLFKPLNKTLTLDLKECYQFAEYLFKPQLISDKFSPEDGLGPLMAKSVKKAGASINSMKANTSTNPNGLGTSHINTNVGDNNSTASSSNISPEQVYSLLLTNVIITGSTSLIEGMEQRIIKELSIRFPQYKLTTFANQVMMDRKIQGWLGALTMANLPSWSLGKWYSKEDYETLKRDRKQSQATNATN
T1 sequence (Q05123 1-467 partner): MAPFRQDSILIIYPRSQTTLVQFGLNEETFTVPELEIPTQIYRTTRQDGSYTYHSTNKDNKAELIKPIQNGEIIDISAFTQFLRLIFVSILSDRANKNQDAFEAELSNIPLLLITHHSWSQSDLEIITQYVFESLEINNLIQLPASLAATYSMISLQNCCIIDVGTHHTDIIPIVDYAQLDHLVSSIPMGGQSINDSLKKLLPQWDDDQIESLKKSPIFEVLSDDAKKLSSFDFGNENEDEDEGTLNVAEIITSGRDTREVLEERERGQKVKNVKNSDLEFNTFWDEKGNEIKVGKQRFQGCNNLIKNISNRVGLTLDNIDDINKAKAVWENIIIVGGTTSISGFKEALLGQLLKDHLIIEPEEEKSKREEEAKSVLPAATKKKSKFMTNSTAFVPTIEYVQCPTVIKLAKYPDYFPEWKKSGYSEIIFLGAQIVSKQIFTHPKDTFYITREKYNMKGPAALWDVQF

[2] = molecular target: T1, Sth1 (ATPase subunit of RSCt, trimeric minimal RSC); format: binding; remark: listed apart in the source

| SMILES | Kd [1] [µM] | Kd [2] [µM] |
| --- | --- | --- |
| Nc1ncnc2c1ncn2[C@@H]1O[C@H](COP(=O)(O)OP(=O)(O)NP(=O)(O)O)[C@@H](O)[C@H]1O [AMP-PNP] | 72 ± 6 |  |
| Nc1ncnc2c1ncn2[C@@H]1O[C@H](COP(=O)(O)OP(=O)(O)O)[C@@H](O)[C@H]1O [ADP] |  | 14 ± 4 |
